According to paper PMC8138313, “Identification, Selection and Immune Assessment of Liver Stage CD8 T Cell Epitopes From Plasmodium falciparum” (Frontiers in Immunology, 2021):
Where a SMILES comes first, the peptide text is derived from it.

molecular target: HLA A*0201 (Homo sapiens, UniProt P04439, D140Y/D185E/D98H/E176V/E277Q/G131W/G231S/I119V/I121R/I166T/I218V/L300P/L318F/N151K/N90K/P208A/P217A/Q86G/Q94H/R138H/R169H/T345S); assay: HLA class I binding assay (cell-free competition, fluorescence polarization)

| SMILES | IC50 [µM] |
| --- | --- |
| CC[C@H](C)[C@H](NC(=O)[C@H](CCC(=O)O)NC(=O)[C@H](CC(N)=O)NC(=O)[C@H](CC(C)C)NC(=O)[C@H](CC(C)C)NC(=O)[C@@H]1CCCN1C(=O)[C@@H]1CCCN1C(=O)[C@H](CC(C)C)NC(=O)[C@@H](N)CCCCN)C(=O)O (H-KLPPLLNEI-OH) | 2.66 |
| CC[C@H](C)[C@H](NC(=O)[C@@H]1CCCN1C(=O)[C@H](Cc1ccc(O)cc1)NC(=O)[C@H](CCC(N)=O)NC(=O)[C@H](CC(=O)O)NC(=O)[C@H](CO)NC(=O)[C@H](CCCCN)NC(=O)[C@H](CCSC)NC(=O)[C@@H](N)CCCCN)C(=O)O (H-KMKSDQYPI-OH) | 3.07 |
| CC[C@H](C)[C@H](NC(=O)[C@H](Cc1ccc(O)cc1)NC(=O)[C@@H]1CCCN1C(=O)[C@@H]1CCCN1C(=O)[C@H](CC(C)C)NC(=O)CNC(=O)[C@@H](NC(=O)[C@@H](NC(=O)[C@@H](N)Cc1ccc(O)cc1)[C@@H](C)O)[C@@H](C)CC)C(=O)O (H-YTIGLPPYI-OH) | 2.46 |

molecular target: HLA A*2402 (Homo sapiens, UniProt P04439, D101N/D140Y/D185E/E176V/E190D/F33S/G103R/G107R/I119L/I121M/I306V/K335N/L105A/L180Q/L300P/N151K/N90K/Q86E/Q94H/R106L/R138H/R89G/T104I/T345S/V100E/W191G/Y123F); assay: as above

| SMILES | IC50 [µM] |
| --- | --- |
| CC[C@H](C)[C@H](NC(=O)CNC(=O)[C@H](Cc1ccc(O)cc1)NC(=O)[C@@H](N)Cc1c[nH]cn1)C(=O)N[C@@H](CC(N)=O)C(=O)N1CCC[C@H]1C(=O)N[C@H](C(=O)N[C@@H](CCC(N)=O)C(=O)N[C@@H](CC(C)C)C(=O)O)C(C)C (H-HYGINPVQL-OH) | 6.79 |
| CC(C)[C@H](NC(=O)[C@H](CCCNC(=N)N)NC(=O)[C@H](CC(N)=O)NC(=O)[C@H](CCCCN)NC(=O)[C@H](Cc1ccc(O)cc1)NC(=O)[C@@H](NC(=O)[C@H](CC(N)=O)NC(=O)[C@H](Cc1ccc(O)cc1)NC(=O)[C@@H](N)Cc1c[nH]cn1)[C@@H](C)O)C(=O)N[C@@H](Cc1ccccc1)C(=O)O (H-HYNTYKNRVF-OH) | 3 |
| CC[C@H](C)[C@H](N)C(=O)N[C@@H](Cc1c[nH]c2ccccc12)C(=O)N[C@@H](Cc1ccc(O)cc1)C(=O)N[C@@H](CCCCN)C(=O)N[C@@H](Cc1ccc(O)cc1)C(=O)N[C@H](C(=O)N[C@@H](CCC(=O)O)C(=O)N[C@@H](CO)C(=O)N[C@@H](CC(=O)O)C(=O)N[C@@H](Cc1ccccc1)C(=O)O)[C@@H](C)O (H-IWYKYTESDF-OH) | 1.12 |
| CC[C@H](C)[C@H](N)C(=O)N[C@@H](Cc1ccc(O)cc1)C(=O)NCC(=O)N[C@@H](CCCCN)C(=O)NCC(=O)NCC(=O)N[C@@H](Cc1ccccc1)C(=O)N[C@@H](CCC(N)=O)C(=O)N[C@@H](Cc1ccccc1)C(=O)O (H-IYGKGGFQF-OH) | 0.163 |
| CC[C@H](C)[C@H](NC(=O)[C@H](CCC(=O)O)NC(=O)[C@H](CC(N)=O)NC(=O)[C@H](CC(C)C)NC(=O)[C@H](CC(C)C)NC(=O)[C@@H]1CCCN1C(=O)[C@@H]1CCCN1C(=O)[C@H](CC(C)C)NC(=O)[C@@H](N)CCCCN)C(=O)O (H-KLPPLLNEI-OH) | 0.0887 |
| CC[C@H](C)[C@H](NC(=O)[C@@H]1CCCN1C(=O)[C@H](Cc1ccc(O)cc1)NC(=O)[C@H](CCC(N)=O)NC(=O)[C@H](CC(=O)O)NC(=O)[C@H](CO)NC(=O)[C@H](CCCCN)NC(=O)[C@H](CCSC)NC(=O)[C@@H](N)CCCCN)C(=O)O (H-KMKSDQYPI-OH) | 6.9 |
| CC[C@H](C)[C@H](NC(=O)[C@H](CCCNC(=N)N)NC(=O)[C@@H]1CCCN1C(=O)[C@H](CC(=O)O)NC(=O)[C@H](Cc1ccc(O)cc1)NC(=O)[C@@H](N)CCCCN)C(=O)N[C@@H](CO)C(=O)NCC(=O)N[C@@H](Cc1c[nH]c2ccccc12)C(=O)O (H-KYDPRISGW-OH) | 5.01 |
| CC(C)C[C@H](N)C(=O)N[C@@H](Cc1ccccc1)C(=O)NCC(=O)N[C@@H](CC(=O)O)C(=O)N[C@@H](CCC(=O)O)C(=O)N[C@@H](CC(N)=O)C(=O)N[C@@H](Cc1ccccc1)C(=O)N[C@@H](CO)C(=O)N[C@@H](Cc1ccccc1)C(=O)O (H-LFGDENFSF-OH) | 5.87 |
| CSCC[C@H](N)C(=O)N[C@@H](Cc1ccc(O)cc1)C(=O)N[C@@H](Cc1c[nH]cn1)C(=O)N[C@@H](CC(N)=O)C(=O)N[C@@H](CCCCN)C(=O)N[C@@H](CCC(=O)O)C(=O)N[C@@H](Cc1ccccc1)C(=O)N[C@@H](CC(=O)O)C(=O)N[C@@H](Cc1ccccc1)C(=O)O (H-MYHNKEFDF-OH) | 4.51 |
| CSCC[C@H](NC(=O)[C@@H](N)CC(N)=O)C(=O)N[C@@H](CC(N)=O)C(=O)N[C@@H](Cc1ccc(O)cc1)C(=O)N[C@@H](CCCCN)C(=O)N[C@@H](CCC(N)=O)C(=O)N[C@@H](CC(N)=O)C(=O)N[C@@H](CC(N)=O)C(=O)N[C@@H](Cc1ccccc1)C(=O)O (H-NMNYKQNNF-OH) | 14.7 |
| NCCCC[C@H](NC(=O)[C@H](Cc1ccc(O)cc1)NC(=O)[C@@H](N)CC(N)=O)C(=O)N[C@@H](CCC(N)=O)C(=O)N[C@@H](CC(N)=O)C(=O)N[C@@H](CC(N)=O)C(=O)N[C@@H](Cc1ccccc1)C(=O)N1CCC[C@H]1C(=O)N[C@@H](Cc1ccccc1)C(=O)O (H-NYKQNNFPF-OH) | 9.49 |
| CC[C@H](C)[C@H](NC(=O)[C@H](CC(N)=O)NC(=O)[C@H](Cc1ccc(O)cc1)NC(=O)[C@H](CCC(N)=O)NC(=O)[C@H](CC(=O)O)NC(=O)[C@H](CC(N)=O)NC(=O)[C@H](CC(N)=O)NC(=O)[C@H](Cc1ccc(O)cc1)NC(=O)[C@@H](N)CC(N)=O)C(=O)O (H-NYNNDQYNI-OH) | 6.54 |
| CC(C)C[C@H](NC(=O)[C@H](Cc1ccccc1)NC(=O)[C@@H]1CCCN1)C(=O)N[C@@H](CCCCN)C(=O)N[C@@H](CO)C(=O)NCC(=O)N[C@@H](Cc1ccccc1)C(=O)N[C@H](C(=O)N[C@@H](Cc1ccccc1)C(=O)O)[C@@H](C)O (H-PFLKSGFTF-OH) | 8.32 |
| N=C(N)NCCC[C@H](NC(=O)[C@H](Cc1ccc(O)cc1)NC(=O)[C@H](CCCCN)NC(=O)[C@@H]1CCCN1C(=O)[C@H](Cc1c[nH]cn1)NC(=O)[C@@H](N)CO)C(=O)N[C@@H](CC(N)=O)C(=O)N[C@@H](Cc1ccccc1)C(=O)N[C@@H](CCCCN)C(=O)N[C@@H](Cc1ccccc1)C(=O)O (H-SHPKYRNFKF-OH) | 16.6 |
| CC[C@H](C)[C@H](NC(=O)[C@H](CO)NC(=O)[C@H](Cc1ccc(O)cc1)NC(=O)[C@@H](N)[C@@H](C)O)C(=O)N[C@@H](Cc1ccc(O)cc1)C(=O)N[C@H](C(=O)N[C@@H](CC(N)=O)C(=O)N[C@@H](Cc1ccccc1)C(=O)N[C@@H](CCCCN)C(=O)N[C@@H](CC(N)=O)C(=O)O)[C@@H](C)O (H-TYSIYTNFKN-OH) | 26.6 |
| C[C@@H](O)[C@H](NC(=O)[C@H](Cc1ccc(O)cc1)NC(=O)[C@H](CCCCN)NC(=O)[C@H](Cc1ccc(O)cc1)NC(=O)[C@@H](N)Cc1c[nH]c2ccccc12)C(=O)N[C@@H](CCC(=O)O)C(=O)N[C@@H](CO)C(=O)N[C@@H](CC(=O)O)C(=O)N[C@@H](Cc1ccccc1)C(=O)O (H-WYKYTESDF-OH) | 2.51 |
| CC(C)[C@H](NC(=O)[C@H](Cc1ccccc1)NC(=O)[C@H](CCC(N)=O)NC(=O)[C@H](Cc1ccccc1)NC(=O)CNC(=O)CNC(=O)[C@H](CCCCN)NC(=O)CNC(=O)[C@@H](N)Cc1ccc(O)cc1)C(=O)N[C@@H](Cc1ccccc1)C(=O)O (H-YGKGGFQFVF-OH) | 0.231 |
| CC[C@H](C)[C@H](NC(=O)[C@H](Cc1ccc(O)cc1)NC(=O)[C@@H]1CCCN1C(=O)[C@@H]1CCCN1C(=O)[C@H](CC(C)C)NC(=O)CNC(=O)[C@@H](NC(=O)[C@@H](NC(=O)[C@@H](N)Cc1ccc(O)cc1)[C@@H](C)O)[C@@H](C)CC)C(=O)O (H-YTIGLPPYI-OH) | 6.57 |
| CC[C@H](C)[C@H](NC(=O)[C@@H](NC(=O)[C@@H]1CCCN1C(=O)[C@H](Cc1ccc(O)cc1)NC(=O)[C@@H](N)Cc1ccc(O)cc1)[C@@H](C)CC)C(=O)N[C@@H](CCCNC(=N)N)C(=O)N[C@@H](CCCCN)C(=O)N[C@@H](CCC(N)=O)C(=O)N[C@@H](Cc1ccccc1)C(=O)O (H-YYPIIRKQF-OH) | 0.101 |

molecular target: HLA B*4402 (Homo sapiens, UniProt P01889, A223V/A65T/A93T/A95T/D201E/D98Y/E176V/E187L/E204Q/E69K/G107R/H137Y/K202T/L105A/L119I/N104T/N87E/Q56L/Q94N/R106L/R155S/R180D/S101N/S121R/S35A/S48T/T118I/V36M/W191S/Y140D/Y91S); assay: as above

| SMILES | IC50 [µM] |
| --- | --- |
| CC[C@H](C)[C@H](NC(=O)[C@H](CC(C)C)NC(=O)[C@H](CC(=O)O)NC(=O)[C@H](CC(N)=O)NC(=O)[C@H](CCCNC(=N)N)NC(=O)[C@H](CO)NC(=O)[C@@H](NC(=O)[C@H](CCC(=O)O)NC(=O)[C@H](C)N)[C@@H](C)CC)C(=O)O (H-AEISRNDLI-OH) | 4.53 |
| CC[C@H](C)[C@H](NC(=O)[C@H](CCC(N)=O)NC(=O)[C@@H](NC(=O)[C@H](C)NC(=O)[C@H](CCCCN)NC(=O)[C@H](CC(C)C)NC(=O)[C@H](CC(N)=O)NC(=O)[C@H](CCC(=O)O)NC(=O)[C@@H](N)CC(=O)O)[C@@H](C)CC)C(=O)O (H-DENLKAIQI-OH) | 91.3 |
| CC(C)C[C@H](NC(=O)[C@H](CC(N)=O)NC(=O)[C@H](CCC(=O)O)NC(=O)[C@@H](N)CCC(=O)O)C(=O)N[C@@H](Cc1ccccc1)C(=O)N[C@@H](CCC(=O)O)C(=O)N[C@@H](Cc1c[nH]c2ccccc12)C(=O)N[C@@H](CO)C(=O)N[C@@H](CCCCN)C(=O)N[C@H](C(=O)O)[C@@H](C)O (H-EENLFEWSKT-OH; N-terminus assumed) | > 1000 |
| CC[C@H](C)[C@H](N)C(=O)N[C@@H](CCC(=O)O)C(=O)N[C@@H](CC(N)=O)C(=O)N[C@@H](CC(N)=O)C(=O)N[C@@H](CC(C)C)C(=O)N[C@@H](Cc1ccc(O)cc1)C(=O)N[C@@H](CCC(=O)O)C(=O)N[C@@H](CCCNC(=N)N)C(=O)N[C@@H](CC(C)C)C(=O)O (H-IENNLYERL-OH) | 60.1 |
| CC[C@H](C)[C@H](NC(=O)[C@H](CCC(=O)O)NC(=O)[C@H](CCCCN)NC(=O)[C@H](CCC(=O)O)NC(=O)[C@H](CCC(=O)O)NC(=O)[C@@H](N)CCCCN)C(=O)N[C@@H](CC(N)=O)C(=O)N[C@@H](CC(=O)O)C(=O)N[C@@H](CCC(=O)O)C(=O)N[C@@H](Cc1ccc(O)cc1)C(=O)O (H-KEEKEINDEY-OH; N-terminus assumed) | > 1000 |
| CC[C@H](C)[C@H](NC(=O)[C@@H](NC(=O)[C@@H](NC(=O)[C@H](Cc1c[nH]cn1)NC(=O)[C@H](CC(=O)O)NC(=O)[C@H](CCCCN)NC(=O)[C@H](CCCCN)NC(=O)[C@H](CCC(=O)O)NC(=O)[C@@H](N)CCCCN)[C@@H](C)CC)C(C)C)C(=O)O (H-KEKKDHIVI-OH) | 64.6 |
